Legend:
[1] = system: cancer cell lines (panel of thirty); assay: MTT growth inhibition, mean over cancer cell line panel; assay type: cell-based; conditions: Homo sapiens, 72 h
Procedure: FIG. 7 is a graphical representation showing that Compound 1 (a131) induces selective cell growth inhibitory effects in a broad spectrum of human cancer cells. A panel of cancer and normal cell lines were treated with Compound 1 (a131) for 72 h and a mean G150 value (the concentration required to achieve 50% growth inhibition) was determined. A Student's t-test indicated a statistically significant difference at p<0.05 (p=0.017) between normal cells and cancer cells treated with Compound 1 (a131). […]
The MTT assay was performed by adding thiazolyl blue tetrazolium bromide (MTT reagent, Invitrogen) at a concentration of 0.5 mg/mL to each cell culture and the resulting mixture incubated for 4 h at 37° C. […] The absorbance of each well at 540 nm and 660 nm was measured using a microplate reader (Benchmark plus, BIO-RAD). The optical density (OD) values were calculated by subtracting the absorbance at 660 nm from the absorbance at 540 nm. […]

[2] = system: LC3 (LC3-II/LC3-I) in HeLa cells; assay: Immunoblot analysis of LC3 in HeLa cells; assay type: cell-based, human; conditions: 0.625-10 μM, 6 h
Procedure: (§1) FIG. 1 is a diagrammatic representation of an immunoblot analysis showing the dual inhibition of the autophagic process and mitotic progression by Compound 1 (a131). HeLa cells were treated with the indicated μM concentration of Compound 1 (a131) or chloroquine for 6 h. Cells were harvested and total lysates were analysed by detecting the mitotic marker phospho-histone H3 at serine 10 (pH3 (Ser10)) and the autophagosome marker LC3. The band intensity ratios of LC3-II/LC3-I as compared to DMSO control (lane 1, 0 μM chloroquine, and lane 7, 0 μM a131) are indicated (Ratio). Antibodies raised against β-actin were used as an internal loading control.
(§2) The ability of Compound 1 to inhibit lysosome function was examined using immunoblotting. HeLa cervical cancer cells were cultured in Dulbecco's modified Eagle's medium (DMEM) supplemented with 10% Fetal Bovine Serum (FBS, Thermo Scientific). […]
(§3) Defects in lysosome function and inhibition of autophagy can be measured by accumulation of LC3-phosphatidylethanolamine conjugated non-soluble form (LC3-II), which are converted from soluble LC3-I. Thus, antibodies raised against LC3 (Cell Signaling, Cat#4108) were used to determine lysosomal function and integrity. […] The inhibitory ability of Compound 1 was also quantitatively compared to CQ.

[3] = system: phospho-histone H3 (pH3) in HeLa cells; assay: Immunoblot analysis of phospho-histone H3 in HeLa cells; assay type: cell-based, human; conditions: 6 h
Procedure: as §1, §2, §3

[4] = system: isogenic non-transformed (normal) BJ cells; assay: PI staining and FACS analysis, sub-G1 cell death; assay type: cell-based, human; conditions: 48 h
Procedure: FIG. 5A is a histogram showing the ability of Compound 1 (a131) and its derivatives Compound 2 (a156), Compound 16 (b5), Compound 17 (b9), all in Group 1; Compound 29 (a219), Compound 13 (b12), Compound 11 (b15), Compound 12 (b16), Compound 25 (a166), all in Group 2; and Compound 3 (a159) from Group 3, to induce cancer selective cell death. Isogenic non-transformed (normal) and oncogene-transformed BJ cells were treated with each compound for 48 h and cells were stained with propidium iodide (PI) and subjected to FACS analysis. The percentage of cells in sub-G1 phase is indicative of the extent of cell death. […] In contrast, the ability of the compounds in Groups 2 and 3 to induce cancer selective cell death was markedly compromised (or reduced).
The Compounds 25 (a166) and 3 (a159) were selected from Group 2 and Group 3, respectively. Isogenic non-transformed normal and oncogene-transformed BJ cells were treated with or without 0.3 μM or 0.6 μM Compound 3 (a159) alone or together with 1.25 μM Compound 25 (a166) for 48 h. Cells were stained with propidium iodide (PI) and subjected to FACS analysis.
Isogenic non-transformed and oncogene-transformed human fibroblast BJ cell lines were cultured in DMEM supplemented with 10% FBS. The cells were treated with Compound 1 (2.5 μM, DMSO). 48 h after treatment, the cells were fixed with ethanol at −30° C. overnight and stained with 20 μg/mL propidium iodide (PI) and 10 μg/mL RNase A for 30 min. These cells were then subjected to flow cytometry (FACS) analysis using MACSQuant (Miltenyi Biotec) to count the percentage of apoptotic cells in sub-G1 peak.
The above procedure was repeated for Group 1 Compounds 2, 16 and 17, Group 2 Compounds 29, 13, 11, 12 and 25 at a concentration of 10 μM, and Group 3 Compound 3 at a concentration of 5 μM.
Isogenic non-transformed normal and oncogene-transformed BJ cells were cultured as in Biology Example 3. The cells were treated with a combination of Compound 3 (Group 3, at a concentration of 0.3 μM or 0.6 μM), and Compound 25 (Group 2, at a concentration of 1.25 μM) for 48 hours. Controls using DMSO, Compound 3 and Compound 25 alone (at the concentrations mentioned above) were also performed.

SMILES	GI50 [1]	levels of LC3-II [2]	inhibition of mitotic progression (levels of phospho-histone H3) [3]	cell death (population of cells in sub-G1) ([4]; normal BJ cells (FIG. 5A))	cell death ([4]; Compound 3 0.3 or 0.6 μM, Compound 25 1.25 μM, alone or in combination)
N#C/C(=C\c1cccc2cnccc12)c1c[nH]c2ccccc12 [Compound 1, (Z)-2-(1H-indol-3-yl)-3-(isoquinolin-5-yl)acrylonitrile]	1.7 µM	markedly increased the levels of LC3-II	potently inhibits mitotic progression		
N#C/C(=C\c1cccc2ncccc12)c1c[nH]c2ccccc12 [Compound 3, (Z)-2-(1H-indol-3-yl)-3-(quinolin-5-yl)acrylonitrile]				significantly induced cell death	did not lead to a significant increase in cell death

Reference: patent publication US10308631B2, “Selective anti-cancer compounds” (NATIONAL UNIVERSITY OF SINGAPORE, priority 2015, dated 2019)
